These results are taken from ChEMBL document CHEMBL1201862, “PubChem BioAssay data set” (2004).

Some test systems named below: OVCAR-4; Malme-3M; Hs-578T; KM12; SK-OV-3; SF-268; SW-620; A549; OVCAR-3; UO-31; BT-549; OVCAR-8; HT-29; RPMI-8226; UACC-62; RXF 393; 786-0; HL-60; HCC 2998.
What all share (test): growth of human tumour cells (NCI), 48 h

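Tested at 5 concentrations; 48 h exposure; 96-well plates; endpoints linearly interpolated, else capped at highest concentration. GI50: concentration for 50% inhibition of growth.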 Active and inactive are the calls of the source. Rule as the data show it: active = GI50 up to about 1.1 µM and inactive = higher.

`O=C(O)CN(CC(=O)O)c1ccccc1`: the GI50 was 81.7 µM (inactive) with OVCAR-4; 45.8 µM (inactive) in the test with Malme-3M; 80 µM (inactive) with Hs-578T; 60.1 µM (inactive) with KM12; > 100 µM (inactive) in the test on SK-OV-3; > 100 µM (inactive) in the test with SF-268. Besides, the GI50 is > 100 µM (inactive) with SW-620; > 100 µM (inactive) in the test on A549; 75.2 µM (inactive) in the test with OVCAR-3; > 100 µM (inactive) with UO-31; > 100 µM (inactive) with BT-549; > 100 µM (inactive) in the test with OVCAR-8. For the same compound, the GI50 with HT-29 was 59.4 µM (inactive); with RPMI-8226 it was 35.6 µM (inactive); in the test on UACC-62 it was 32 µM (inactive); in the test on RXF 393 it was > 100 µM (inactive); with 786-0, > 100 µM (inactive); in the test with HL-60 it was 44.5 µM (inactive).
`COc1ccc2[nH]c(C(O)(Cc3cccnc3)Cc3cccnc3)cc2c1`: the GI50 in the test with OVCAR-4, in the test on Malme-3M, in the test with Hs-578T, with HCC 2998, in the test on KM12 and in the test on SK-OV-3 was > 100 µM (inactive) each time. Further, the GI50 in the test with SF-268, in the test on SW-620, in the test on A549, in the test on OVCAR-3, in the test with UO-31 and with BT-549 was > 100 µM (inactive) in each case. For the same compound, the GI50 in the test with OVCAR-8, in the test with HT-29, with RPMI-8226, in the test on UACC-62, with RXF 393 and in the test with 786-0 was > 100 µM (inactive) each time.
As for `O=C(O)c1ccn(-c2cccc(-n3ccc(C(=O)O)n3)n2)n1`, the GI50 with OVCAR-4, with Malme-3M, with Hs-578T, with KM12, in the test with SK-OV-3 and in the test with SF-268 was > 100 µM (inactive) in each case. The GI50 in the test with SW-620, in the test with A549, in the test with OVCAR-3, in the test with UO-31, in the test on BT-549 and with OVCAR-8 was > 100 µM (inactive) each time. Also, the GI50 in the test on HT-29, with RPMI-8226, with UACC-62, with RXF 393, in the test on 786-0 and in the test on HL-60 was > 100 µM (inactive) in each case.
Regarding `COc1ccc(COCCOCc2nc(C#N)c(N)o2)cc1`, the GI50 in the test with OVCAR-4, with HCC 2998, in the test on KM12, in the test on SK-OV-3, in the test with SF-268 and in the test on SW-620 was > 100 µM (inactive) throughout. Moreover, the GI50 in the test with A549, in the test with OVCAR-3, in the test with UO-31, in the test with BT-549, in the test on OVCAR-8 and in the test with HT-29 was > 100 µM (inactive) throughout. Further, the GI50 in the test with RPMI-8226, with UACC-62, in the test with RXF 393, with 786-0 and in the test with HL-60 was > 100 µM (inactive) each time.
Take `COc1cc2c(cc1OCCCC(=O)Nc1cc(C(=O)NCCCN(C)C)n(C)n1)N=CC1CCCN1C2=O` (stereo not given): the GI50 with OVCAR-4 was 6.44 µM (inactive); in the test on Malme-3M, 6.97 µM (inactive); in the test on Hs-578T, 11 µM (inactive); in the test on HCC 2998, 11.1 µM (inactive); in the test with KM12, > 100 µM (inactive); in the test on SK-OV-3 it was > 42.2 µM (inactive). In addition, the GI50 was 16.2 µM (inactive) with SF-268; 8.63 µM (inactive) in the test with SW-620; > 19.7 µM (inactive) in the test on A549; 27.5 µM (inactive) in the test with OVCAR-3; 8.65 µM (inactive) in the test with UO-31; 9.75 µM (inactive) in the test with BT-549. Also, the GI50 in the test on HT-29 is 7.31 µM (inactive); in the test with RPMI-8226 it was 5.66 µM (inactive); in the test on UACC-62 it was 4.24 µM (inactive); with RXF 393 it was 9.18 µM (inactive); in the test with 786-0, 6.46 µM (inactive).
For `COC(=O)C1=C(C)C=C(N2CCOCC2)C(C(=O)OC)C1c1ccccc1` (stereo not given), the GI50 with OVCAR-4, in the test with Malme-3M, with Hs-578T, in the test on HCC 2998, with KM12 and in the test on SK-OV-3 was > 10 µM (inactive) throughout. Besides, the GI50 in the test on SF-268, in the test with SW-620, with A549, in the test on OVCAR-3, with UO-31 and in the test on BT-549 was > 10 µM (inactive) throughout. The GI50 in the test on OVCAR-8, in the test on HT-29, with RPMI-8226, in the test on RXF 393 and in the test on 786-0 was > 10 µM (inactive) throughout.
Consider `c1ccc2cc(OCC3CO3)c(OCC3CO3)cc2c1` (stereo not given), for which the GI50 with Malme-3M is 7.64 µM (inactive); in the test with Hs-578T, 3.89 µM (inactive); in the test on KM12 it was 5.7 µM (inactive); in the test on SK-OV-3 it was 10.6 µM (inactive); with SF-268, 0.891 µM (active); in the test with SW-620, 1.91 µM (inactive). Further, the GI50 with A549 was 3.68 µM (inactive); in the test with OVCAR-3, 13.4 µM (inactive); with UO-31, 2.37 µM (inactive); in the test with BT-549, 1.45 µM (inactive); in the test on OVCAR-8, 2.94 µM (inactive); in the test on HT-29, 7.05 µM (inactive). Further, the GI50 in the test on RPMI-8226 is 1.92 µM (inactive); in the test with UACC-62 it was 2.84 µM (inactive); in the test on RXF 393, < 0.01 µM (active); in the test with 786-0, 1.54 µM (inactive); with HL-60 it was 1.53 µM (inactive).
For `Cn1c2ccccc2c(=S)c2cc(NC(=O)CCCCC(=O)Nc3ccc4c(c3)c(=S)c3ccccc3n4C)ccc21`, the GI50 in the test with Hs-578T, with HCC 2998, with KM12, in the test on SK-OV-3, in the test on SF-268 and in the test on SW-620 was > 100 µM (inactive) each time. Also, the GI50 was > 100 µM (inactive) with A549; > 100 µM (inactive) with OVCAR-3; > 100 µM (inactive) in the test with UO-31; > 100 µM (inactive) with BT-549; 34.3 µM (inactive) with OVCAR-8; > 100 µM (inactive) with HT-29. Also, the GI50 in the test on RPMI-8226 was > 100 µM (inactive); in the test with UACC-62 it was > 100 µM (inactive); in the test with RXF 393, > 100 µM (inactive); in the test on 786-0 it was 72.1 µM (inactive).
As to `ONCCCn1cnc2c(NC3CC3)ncnc21`, the GI50 with OVCAR-4, with Malme-3M, in the test on Hs-578T, with HCC 2998, with KM12 and in the test on SK-OV-3 was > 100 µM (inactive) throughout. For the same compound, the GI50 with SF-268, in the test with SW-620, in the test on A549, with OVCAR-3, in the test on UO-31 and in the test on BT-549 was > 100 µM (inactive) throughout. In addition, the GI50 in the test with OVCAR-8, in the test on HT-29, in the test with RPMI-8226, in the test with UACC-62, in the test with RXF 393 and in the test on 786-0 was > 100 µM (inactive) in each case.
`O=c1oc2nc(-c3ccccc3)cc(C(F)(F)F)c2n1Cc1ccccc1`: the GI50 is 11.6 µM (inactive) in the test with OVCAR-4; 1.89 µM (inactive) in the test on Malme-3M; > 25.8 µM (inactive) in the test with HCC 2998; 2.84 µM (inactive) with KM12; 7.8 µM (inactive) in the test with SK-OV-3; > 25 µM (inactive) with SF-268. Besides, the GI50 with SW-620 was 6.5 µM (inactive); with A549, 8.69 µM (inactive); in the test on OVCAR-3, 4.06 µM (inactive); in the test with BT-549, 19.7 µM (inactive); in the test on OVCAR-8, 42.4 µM (inactive); in the test on HT-29, 3.8 µM (inactive). For the same compound, the GI50 in the test on RPMI-8226 was 4.41 µM (inactive); with UACC-62, 4.24 µM (inactive); in the test with RXF 393 it was 2.71 µM (inactive); in the test with 786-0 it was 5.43 µM (inactive); with HL-60 it was 2.15 µM (inactive).
Turning to `COc1cc(-c2coc3c(OC)c(OC4OC(COC5OC(C)C(O)C(O)C5O)C(O)C(O)C4O)c(OC)c(O)c3c2=O)cc(C)c1O` (stereo not given), the GI50 in the test on OVCAR-4 is 18.9 µM (inactive); in the test on Malme-3M it was 18.3 µM (inactive); with Hs-578T it was 20.7 µM (inactive); with HCC 2998, 16.1 µM (inactive); in the test on KM12 it was 11.7 µM (inactive); in the test with SK-OV-3 it was 16.8 µM (inactive). For the same compound, the GI50 was 19.4 µM (inactive) in the test on SF-268; 12.7 µM (inactive) with SW-620; 23.8 µM (inactive) in the test with A549; 13.7 µM (inactive) in the test on OVCAR-3; 16.6 µM (inactive) in the test with UO-31; 13.9 µM (inactive) in the test on BT-549. Also, the GI50 in the test with OVCAR-8 was 23.6 µM (inactive); in the test with HT-29 it was 19.5 µM (inactive); in the test on UACC-62, 14.3 µM (inactive); in the test with RXF 393, 13 µM (inactive); with 786-0 it was 0.178 µM (active).
As for `O=C(O)c1cc(NCc2cc(O)ccc2O)ccc1O` [LAVENDUSTIN C], the GI50 in the test with OVCAR-4, in the test with Hs-578T, with HCC 2998, in the test with KM12, in the test on SK-OV-3 and in the test on SF-268 was > 100 µM (inactive) each time. Besides, the GI50 in the test on SW-620 is 23.8 µM (inactive); with A549 it was > 100 µM (inactive); with OVCAR-3, > 100 µM (inactive); in the test on UO-31, 67.1 µM (inactive); in the test on BT-549, > 100 µM (inactive); in the test with HT-29, > 100 µM (inactive). The GI50 in the test with UACC-62 is > 100 µM (inactive); in the test with RXF 393, > 100 µM (inactive); in the test with 786-0 it was 45.3 µM (inactive).
